Measurements taken from patent US20060226082A1, “Methods for substrate and modulator screening using enzyme-reactor chromatography/tandem mass spectrometry” (McMaster University, priority 2005, published 2006).
“Also recorded” adds a separate entry of the source.

Columns and labels:
[1] = target: T1, adenosine deaminase (ADA, Type V, EC 3.5.4.4) entrapped in monolithic silica column (Bos taurus, UniProt P56658); assay: ADA enzyme reactor/MS quantitative determination of IC50, KI and Km; assay type: biochemical, bovine; settings: for effect on ADA activity (substrate and product signals, P/S ratio): test compounds increased stepwise from 0 to 1000 nM, adenosine constant at 62.5 μM, 2 mM ammonium acetate; for IC50: IC50 [EHNA]
T1 construct: Adenosine deaminase (ADA, Type V, from bovine intestine, EC 3.5.4.4); purchased Sigma-Aldrich (Oakville, Ontario, Canada) Type V (catalogue number not given); host or cells: bovine intestine (tissue-derived)
T1 sequence (P56658 1-363): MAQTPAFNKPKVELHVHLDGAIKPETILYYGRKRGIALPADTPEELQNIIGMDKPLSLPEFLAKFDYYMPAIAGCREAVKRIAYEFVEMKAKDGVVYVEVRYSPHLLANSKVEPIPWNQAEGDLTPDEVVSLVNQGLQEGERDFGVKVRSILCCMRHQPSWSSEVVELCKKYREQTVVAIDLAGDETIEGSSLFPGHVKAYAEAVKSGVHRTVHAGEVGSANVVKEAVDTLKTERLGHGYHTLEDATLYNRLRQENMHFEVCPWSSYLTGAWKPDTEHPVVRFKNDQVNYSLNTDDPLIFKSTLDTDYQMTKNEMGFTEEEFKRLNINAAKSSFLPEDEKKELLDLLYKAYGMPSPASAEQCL
Source text: In an embodiment of the invention, if the P/S ratio is altered in favour of the substrate, then at least one of the one or more test compounds is an inhibitor of the protein. By altering the ratio of the flow between substrate and test compound channels, one can alter the compound concentrations and, thereby, obtain full inhibition curves. IC50 values are obtained by altering the flow in the substrate and substrate+inhibitor(s) channel in a stepwise fashion, thus allowing for variation of inhibitor concentration with constant substrate concentration. […] KI values are determined by extrapolation of IC50 values obtained at different substrate concentrations to the point of zero substrate concentration as per the equation: [formula] […] Note that for the enzyme reactor column, product concentration, rather than reaction rate, is monitored. Thus, the equation is valid only under conditions where the initial rate is proportional to product concentration. In the present system, it is assumed that this holds for conversion rates of 30% or less.
To assess the enzyme-reactor chromatography/tandem MS method for inhibitor screening, monolithic silica columns containing entrapped adenosine deaminase (ADA, EC 3.5.4.4) and Factor Xa were formed according to previously described methods.^25 ADA was used as the model enzyme owing to the relevance of this protein in immune disorders,^19 and because there are currently no high-throughput screening methods for this enzyme. An Eksigent nanoLC system was used to continuously infuse liquid through the column (10 μL/min total flowrate), with one channel containing adenosine (Pump A) and another containing adenosine plus 1 μM test compound(s) (Pump B), with all species present in 2 mM ammonium acetate buffer (FIG. 1, bottom).
(§1) Columns were fabricated in a fashion similar to that described previously.^25 ADA was exhaustively dialyzed against a solution containing 5 mM Bis-Tris.HCl, pH 6.5, with 10% (v/v) glycerol to remove all traces of phosphate buffer and adjust the pH. 40 mL of the resultant 40 mM ADA solution was then mixed with 20 mL of a solution containing 0.5 mM Bis-Tris.HCl, pH 6.5 with 50% (v/v) glycerol. DGS based sols were prepared by sonicating DGS with water (1 g+1 mL) at 0° C. for 15 min to hydrolyze the monomer, followed by filtration through a 0.2 mm filter. 100 mL of the resulting sol was rapidly mixed with the 60 mL ADA solution prepared above, followed by the rapid addition of 40 mL of 40% (w/v) poly(ethylene glycol) in water. The sol solution was then injected into an 80 cm length of 250 mm i.d., 360 mm o.d., polyimide coated fused silica tubing that was previously cleaned using 1 M NaOH. The liquid sol must be completely mixed, injected and stationary within the capillary by the time phase separation occurs, ˜2 minutes after mixing. After gelation (˜3 min), capillaries were looped such that both ends could be submerged in 50 mM Bis-Tris.HCl pH 6.5 and secured for storage. Columns were aged for a minimum of 5 days to achieve a relatively stable internal structure. After aging, 10 cm column segments were cut from poured columns, as required.
A 2 channel, Eksigent nanoLC pump was used for mobile phase delivery to a MDS Sciex Q-Trap Mass Spectrometer. Note that the Eksigent pump uses direct pneumatic pumping of mobile phase at μL/min rates, with no flow splitting. An Eksigent AS-1 48 vial autosampler was fitted with a 250 μL withdrawal syringe and a 150 μL loop of 250 μm i.d. fused silica tubing. Thus, only small volumes of inhibitor solutions (˜400 μL) are required for screening, although larger volumes can be loaded directly into the Eksigent pump reservoir (1-5 mL depending on configuration) for determination of IC50 values. […] Mobile phases were run directly into the MS system, without the introduction of an organic “make-up flow”. Mass spectrometer control and data acquisition was done using Analyst v.1.4 software.

[2] = target: T1, adenosine deaminase (ADA, Type V, EC 3.5.4.4) entrapped in monolithic silica column; assay: ADA enzyme reactor/MS mixture screening (primary and secondary screen); assay type: biochemical, bovine; settings: each compound individually, 500 nM and 10 μM, 200 μM adenosine
Protocol: as §1, with “required. […]” for “required.”

[3] = target: T2, adenosine deaminase (ADA) (Homo sapiens, UniProt P00813); settings: literature value; read-out: published KI value; cited from earlier work
T2 sequence (P00813 1-363): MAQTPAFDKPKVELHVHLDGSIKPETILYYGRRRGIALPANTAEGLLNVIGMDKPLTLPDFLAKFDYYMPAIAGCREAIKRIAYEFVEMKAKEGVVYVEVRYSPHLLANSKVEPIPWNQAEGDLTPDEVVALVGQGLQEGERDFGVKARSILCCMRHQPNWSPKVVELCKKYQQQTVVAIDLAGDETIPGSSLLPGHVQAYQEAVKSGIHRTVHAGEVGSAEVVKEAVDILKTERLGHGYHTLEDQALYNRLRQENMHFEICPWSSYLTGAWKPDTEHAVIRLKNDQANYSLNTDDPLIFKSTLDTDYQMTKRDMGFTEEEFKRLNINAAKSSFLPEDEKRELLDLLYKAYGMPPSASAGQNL

Row | Compound | effect on ADA activity (substrate and product signals, P/S ratio) [1] | Vmax ([1]; Michaelis-Menten analysis of inosine production rate (FIG. 6b)) [pmole/min/column] | ADA inhibition in secondary screen (individual compounds of active mixture) [2] | Ki [1] [nM] | IC50 ([1]; EHNA alone (closed circles, FIG. 8A)) [nM] | IC50 ([1]; EHNA in a mixture (open circles, FIG. 8A)) [nM] | Ki [3] [nM]
1 | Nc1nc2ncc(CNc3ccc(C(=O)N[C@@H](CCC(=O)O)C(=O)O)cc3)nc2c(=O)[nH]1 [folic acid] | no significant effect | – | – | – | – | – | –
2 | Nc1ncnc2c1ncn2[C@@H]1O[C@H](CO)[C@@H](O)[C@H]1O [adenosine] | – | 734 | – | – | – | – | –
3 | CCCCCCC(C(C)O)n1cnc2c(N)ncnc21 (stereo not drawn) [EHNA, erythro-9-(2-hydroxy-3-nonyl)adenine] | concentration-dependent decrease in product and increase in substrate signals; also recorded: concentration-dependent decrease in ADA activity | – | active, inhibitory compound; also recorded: inhibitor of ADA | 15.7 ± 3.5 | 29.4 | 29.7 | 6.5
